This is an account of results in ChEMBL document CHEMBL3886580, “B-RAF kinase inhibitors” (2016).

This assay concerns the target Serine/threonine-protein kinase B-raf (Homo sapiens, UniProt P15056, V600E). Kind of assay: B-RAF (V600E) Kinase Assay: In a dilution series 10 uL/well of test substance solution are placed in a multiwell plate. The dilution series is selected so that generally a range of concentrations of 2 uM to 0.119 nM or 0.017 nM is covered. If necessary the initial concentration of 2 uM is changed to 50 uM, 10 uM or 0.4 uM or 0.2857 uM and further dilution is carried out accordingly. The final concentration of DMSO is 5%. 10 uL/well of the B-Raf (V600E)-kinase solution are pipetted in (containing 0.5 ng B-Raf (V600E)-kinase (e.g. from Upstate) in 20 mM Tris-HCl pH 7.5, 0.1 mM EDTA, 0.1 mM EGTA, 0.286 mM sodium orthovanadate, 10% glycerol, 1 mg/mL bovine serum albumin, 1 mM dithiothreitol) and the mixture is incubated for 1 h at RT under with shaking. The kinase reaction is started by the addition of 20 uL/well ATP solution [final concentration: 250 uM ATP, 30 mM Tris-HCl pH 7.5, 0.02% Brij, 0.2 mM sodium orthovanadate, 10 mM magnesium acetate, 0.1 mM EGTA, phosphatase cocktail (Sigma, #P2850, dilution recommended by the manufacturer)] and 10 uL/well MEK1 solution [containing 50 ng biotinylated MEK1 (prepared from purified MEK1 according to standard procedure, e.g. with EZ-Link Sulpho-NHS-LC-Biotin reagent, Pierce, #21335)] and carried out for 60 min at RT with constant shaking. The reaction is stopped by the addition of 12 uL/well of a 100 mM EDTA solution and incubation is continued for a further 5 min. 55 uL/well of the reaction solution are transferred into a streptavidin-coated plate (e.g. Streptawell HighBond, Roche, #11989685001) and shaken gently for 1 h at RT, in order to bind biotinylated MEK1 to the plate. After elimination of the liquid the plate is washed five times with 200 uL/well of 1ÿPBS and 100 uL/well solution of primary antibody plus europium-labelled secondary antibody [Anti Phospho-MEK (Ser217/221), Cell Signaling, #9121 and Eu-N1 labelled goat-anti-rabbit antibody, Perkin Elmer, #AD0105] is added, the primary antibody is diluted 1:2000 and the secondary antibody is diluted to 0.4-0.5 ug/mL in Delfia Assay Buffer (Perkin Elmer, #1244-111). After 1 h shaking at RT the solution is poured away and washed five times with 200 uL/well Delfia Wash Buffer (Perkin Elmer, #4010-0010/#1244-114). After the addition of 200 uL/well Enhancement Solution (Perkin Elmer, #4001-0010/#1244-105) the mixture is shaken for 10 min at RT and then measured in a Wallac Victor using the program "Delfia Time Resolved Fluorescence (Europium)". IC50 values are obtained from these dosage-activity curves using a software program (GraphPadPrizm).

Serine/threonine-protein kinase B-raf, sequence (P15056 2-766 V600E limits assumed): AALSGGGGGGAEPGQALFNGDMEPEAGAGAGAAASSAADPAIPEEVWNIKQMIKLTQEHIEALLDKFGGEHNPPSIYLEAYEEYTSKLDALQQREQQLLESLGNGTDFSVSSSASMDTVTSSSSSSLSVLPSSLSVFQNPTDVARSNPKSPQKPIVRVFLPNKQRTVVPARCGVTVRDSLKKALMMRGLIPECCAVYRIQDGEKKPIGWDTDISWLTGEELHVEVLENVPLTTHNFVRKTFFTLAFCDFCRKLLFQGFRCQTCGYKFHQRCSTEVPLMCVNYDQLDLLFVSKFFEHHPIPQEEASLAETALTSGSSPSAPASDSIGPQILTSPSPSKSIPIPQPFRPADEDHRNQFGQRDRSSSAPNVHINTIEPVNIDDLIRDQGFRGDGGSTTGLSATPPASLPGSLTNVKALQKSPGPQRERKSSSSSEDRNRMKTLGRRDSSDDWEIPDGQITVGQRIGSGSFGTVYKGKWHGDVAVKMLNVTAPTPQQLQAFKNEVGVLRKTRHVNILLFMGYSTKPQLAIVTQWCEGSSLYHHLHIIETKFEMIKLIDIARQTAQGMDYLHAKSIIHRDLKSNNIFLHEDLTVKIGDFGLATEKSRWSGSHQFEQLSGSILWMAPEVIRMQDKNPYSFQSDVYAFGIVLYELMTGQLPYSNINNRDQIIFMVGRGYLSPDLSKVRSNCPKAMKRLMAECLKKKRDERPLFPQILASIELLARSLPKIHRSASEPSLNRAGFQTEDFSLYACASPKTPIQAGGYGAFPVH

What is called IC50 is the concentration that gives 50% inhibition. Take `CCN1CCN(c2cncc(-c3cn(-c4cc(C(=O)Nc5cc(C(C)(C)C)on5)ccc4C)nn3)c2)CC1C` (stereo not given): the IC50 was found to be 11 nM.

As for `C=CCN1CCN(c2cncc(-c3cn(-c4cc(NC(=O)c5ccc(C(C)(C)C)s5)ccc4C)nn3)c2)CC1`, the IC50 is 13 nM.

Take `Cc1ccc(NC(=O)c2ccc(C(C)(C)C)s2)cc1-n1cc(-c2cncc(N3CCNCC3)c2)nn1`: the IC50 is 4 nM.

Take `Cc1ccc(NC(=O)c2ccc(C(C)(C)C)s2)cc1-n1cc(-c2cncc(N3CCN(C)CC3)c2)nn1`: the IC50 amounted to 6 nM.

Take `Cc1ccc(NC(=O)c2ccc(C(C)(C)C)s2)cc1-n1cc(-c2cncc(N3CCN(CC(C)C)CC3)c2)nn1`: the IC50 was found to be 18 nM.
